Assay results from patent US20070191324A1, “Methods for treatment or prophylaxis of aldosterone-mediated pathogenic effects in a subject using an epoxy-steroidal aldosterone antagonist” (priority 1999, published 2007).

Experiment: Pharmacokinetics and absorption of [14C]eplerenone in the rat (Example A-9)
Type: in vivo
Conditions: for Cmax: rat, oral 15 mg/kg
Procedure: Plasma, urine and fecal samples were analyzed for total radioactivity.

Q: With `COC(=O)[C@@H]1CC2=CC(=O)CC[C@]2(C)[C@@]23O[C@@H]2C[C@@]2(C)[C@@H](CC[C@@]24CCC(=O)O4)[C@H]13` [Eplerenone, Pregn-4-ene-7,21-dicarboxylic acid, 9,11-epoxy-17-hydroxy-3-oxo-, γ-lactone, methyl ester, (7α, 11α, 17β)-] as the compound, how does the “time of peak plasma concentration of total radioactivity” value (oral aqueous solution 15 mg/kg, male rat) read?
A: The value was 1.1 h.

Q: And the clearance (plasma, IV 15 mg/kg, male rat)?
A: The clearance was 20.3 mL/min/kg.

Q: What about the half-life (plasma, IV 15 mg/kg, male rat) of the same compound?
A: The half-life was 48.2 min.

Q: What about the Cmax (plasma, female rats) of the same compound?
A: The Cmax was 3540 ng/mL.

Q: And the Cmax (plasma, male rats)?
A: Its Cmax is 1710 ng/mL.
